IC50 data for 17 compounds are collected here from patent US9850206B2, “S1P and/or ATX modulating agents” (BIOGEN MA INC., priority 2012, dated 2017).

Like-named read-outs stand apart in the source and are kept apart here.

In one assay the target is T1, Human ATX protein (Homo sapiens, UniProt Q13822).
T1 construct: made in house
As to the kind of experiment: Autotaxin (ATX) FRET assay with FS-3 substrate. Type of assay: biochemical. An excerpt: ATX (Autotaxin) is a 125 KDa glycoprotein with lysophospholipase D (LPLD) activity that generates the bioactive lipid lysophosphatidic acid (LPA) from lysophosphatidylcholine (LPC). The ATX biochemical assay utilizes a FRET (fluorescence resonance energy transfer) technology platform. […] ATX catalyzes the hydrolysis of the substrate which separates the dabsyl quencher from the fluorescein reporter, which becomes fluorescent. The reaction is monitored by a SpectraMax M5 (Molecular Devices, Sunnyvale, Calif.) with at excitation wavelength 485 nm and emission wavelength 535 nm.
Fatty acid free-BSA (Sigma A8806): 10 mg/mL in H2O, stored at 4° C.
2×ATX assay buffer: 100 mM Tris, 280 mM NaCl, 10 mM KCl, 2 mM CaCl2, 2 mM MgCl2, pH 7.4.
Human ATX protein: expressed and purified in house. Stored at −80° C.
Substrate FS-3 (Echelon, L-2000): 100 μg in 77.74 μL H2O (1 mM stock), stored at −20° C.
Compound dilution—All compounds were provided at 10 mM in 100% DMSO. In the first well, 2 μL of 10 mM compound was added to 78 μL of DMSO (1:40 dilution). In subsequent wells 3-fold dilution (total 10 dilutions) were performed.
1×ATX assay buffer was made up with a final concentration of 1 mg/mL fatty acid free-BSA using 2×ATX assay buffer, 10 mg/ml fatty acid free-BSA and ddH2O.
38 μL was added per well to the assay plate. The final concentration of ATX in the reaction as 1.0 μg/mL.
2 μL per well of compounds was transferred to provide the desired concentration. The plate was centrifuged, then incubated at room temperature for 30 minutes on the shaker.
FS-3 was diluted with 1×ATX assay buffer to a concentration of FS-3 of 10 μM (5×). Then, 10 μL was added per well to the assay plate. The final concentration of FS-3 in the reaction was 2 μM. The plate was centrifuged. The plate was kept shaking at room temperature for 2 hours. Because FS-3 substrate is light sensitive, plates were kept covered and protected from light.

For another assay, the target named is S1P1 (Homo sapiens, UniProt P21453). As to the kind of experiment: S1P receptor activity assay (calcium flux, FLIPR TETRA), S1P1. Type of assay: cell-based. An excerpt: (§1) Agonist percentage activation determinations were obtained by assaying sample compounds and referencing the Emax control for each receptor profiled. Antagonist percentage inhibition determinations were obtained by assaying sample compounds and referencing the control EC80 wells for each receptor profiled. The samples were run using a “Single Addition” assay protocol for the agonist and antagonist assay run. The protocol design was as follows:
(§2) Master stock solution: Unless specified otherwise, all sample compounds were diluted in 100% anhydrous DMSO including all serial dilutions. All control wells contained identical solvent final concentrations as did the sample compound wells.
(§3) Compound plate for assay: The sample compounds were transferred from a master stock solution into a daughter plate that was used in the assay. Each sample compound was diluted into assay buffer (1×HBSS with 20 mM HEPES and 2.5 mM Probenecid) at an appropriate concentration to obtain final concentrations.
(§4) Sample compounds were plated in an eight-point, four-fold dilution series in duplicate with a top concentration of 10 μM. The concentrations described here reflect the final concentration of the compounds during the antagonist assay.
(§5) Reference agonists were handled as mentioned above serving as assay control. The reference agonists were handled as described above for Emax.
(§6) Assay was read for 180 seconds using the […] (This assay run added sample compounds and reference agonist to respective wells). At the completion of the first “Single Addition” assay run, assay plate was removed from the […] and placed at 25° C. for seven (7) minutes.
(§7) Using the EC80 values determined during the agonist assay, stimulated all pre-incubated sample compound and reference antagonist (if applicable) wells with EC80 of reference agonist. Read for 180 seconds using the […] (This assay added reference agonist to respective wells—then fluorescence measurements were collected to calculate percentage inhibition values).
(§8) All plates were subjected to appropriate baseline corrections. Once baseline corrections were processed, maximum fluorescence values were exported and data manipulated to calculate percentage activation, percentage inhibition and Z′.
For orientation: Calcium flux is commonly read through the fluorescence of an indicator in the cells.

A further assay concerns the target T2, S1P4 (Homo sapiens, UniProt O95977).
T2 sequence (O95977 1-384): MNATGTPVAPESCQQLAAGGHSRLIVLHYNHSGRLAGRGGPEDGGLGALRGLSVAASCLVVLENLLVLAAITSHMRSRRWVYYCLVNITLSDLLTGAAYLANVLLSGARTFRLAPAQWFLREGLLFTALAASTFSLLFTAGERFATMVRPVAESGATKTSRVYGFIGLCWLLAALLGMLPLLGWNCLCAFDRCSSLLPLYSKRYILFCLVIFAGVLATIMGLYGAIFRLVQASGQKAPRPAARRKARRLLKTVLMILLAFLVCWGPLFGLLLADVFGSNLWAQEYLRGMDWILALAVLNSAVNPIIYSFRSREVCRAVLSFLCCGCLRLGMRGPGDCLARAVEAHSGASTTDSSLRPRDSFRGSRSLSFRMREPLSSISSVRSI
As to the kind of experiment: S1P receptor activity assay (calcium flux, FLIPR TETRA), S1P4. The assay is classed as cell-based.
Source text: as §1, §2, §3, §4, §5, §6, §7, §8

The target in another assay is S1P5 (Homo sapiens, UniProt Q9H228). As to the kind of experiment: S1P receptor activity assay (calcium flux, FLIPR TETRA), S1P5. The assay is classed as cell-based.
Chain of S1P5 (Q9H228 whole entry): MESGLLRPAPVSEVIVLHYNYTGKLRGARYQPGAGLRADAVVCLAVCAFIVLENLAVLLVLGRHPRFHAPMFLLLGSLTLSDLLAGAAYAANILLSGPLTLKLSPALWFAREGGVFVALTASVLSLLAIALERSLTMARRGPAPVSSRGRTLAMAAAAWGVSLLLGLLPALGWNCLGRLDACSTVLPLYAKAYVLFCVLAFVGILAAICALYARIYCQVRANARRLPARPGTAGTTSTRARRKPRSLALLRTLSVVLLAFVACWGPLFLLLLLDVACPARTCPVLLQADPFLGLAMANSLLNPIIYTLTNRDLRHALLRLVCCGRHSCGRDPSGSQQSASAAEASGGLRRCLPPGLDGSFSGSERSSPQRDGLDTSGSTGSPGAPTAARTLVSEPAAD
Source text: as §1, §2, §3, §4, §5, §6, §7, §8

[1] abbreviates: FS-3 2 μM, ATX 1.0 μg/mL, 2 hours at room temperature, read-out: IC50 (ATX).
[2] abbreviates: calcium flux, top concentration 10 μM, the >5 μM sentence says only 'for S1P1', read-out: IC50 for S1P1 agonist activity.
Setting [3] is: calcium flux, top concentration 10 μM, the >5 μM sentence says only 'for S1P4', read-out: IC50 for S1P4 agonist activity.
The mark [4] stands for this setting: calcium flux, top concentration 10 μM, read-out: IC50 for S1P5.

Chain of S1P1 (P21453 whole entry): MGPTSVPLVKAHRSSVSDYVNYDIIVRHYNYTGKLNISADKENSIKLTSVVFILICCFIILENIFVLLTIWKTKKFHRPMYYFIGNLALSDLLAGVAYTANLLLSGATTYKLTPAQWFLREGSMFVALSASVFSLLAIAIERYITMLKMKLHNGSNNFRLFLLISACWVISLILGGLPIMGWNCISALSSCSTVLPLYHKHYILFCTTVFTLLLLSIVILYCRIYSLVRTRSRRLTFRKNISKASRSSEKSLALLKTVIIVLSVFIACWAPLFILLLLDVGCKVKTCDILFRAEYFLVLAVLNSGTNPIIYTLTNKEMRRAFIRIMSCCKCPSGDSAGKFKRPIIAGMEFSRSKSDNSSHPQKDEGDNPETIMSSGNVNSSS

Consider `CC(C)(C)[C@H]1CC[C@H](Oc2ccc(N3CCN(CCC(=O)O)CC3)cc2)CC1` [Example 17, 3-(4-(4-((trans-4-(tert-Butyl)cyclohexyl)oxy)phenyl)piperazin-1-yl)propanoic acid], for which the IC50 (commonly the point on the concentration scale where inhibition reaches its midpoint) at Human ATX protein (setting [1]) was more than 10 µM; on S1P1 (setting [2]), more than 5 µM; at S1P4 (setting [3]), 2 to 5 µM; on S1P5 (setting [4]), more than 5 µM.

Consider `CC(C)(C)[C@H]1CC[C@H](Oc2ccc(N3CCN(CCCC(=O)O)CC3)cc2)CC1` [Example 18, 4-(4-(4-((trans-4-(tert-Butyl)cyclohexyl)oxy)phenyl)piperazin-1-yl)butanoic acid], for which the half-inhibitory concentration (IC50) at Human ATX protein (setting [1]) was more than 10 µM; at S1P1 (setting [2]), more than 5 µM; on S1P4 (setting [3]), 2 to 5 µM; on S1P5 (setting [4]), more than 5 µM.

Take `CC(C)(C)[C@H]1CC[C@H](Oc2ccc(N3CCN(CC45CCC(C(=O)O)(CC4)CC5)CC3)cc2)CC1` [Example 19, 4-((4-(4-((trans-4-(tert-Butyl)cyclohexyl)oxy)phenyl)piperazin-1-yl)methyl)bicyclo[2.2.2]octane-1-carboxylic acid]: the half-inhibitory concentration (IC50) on Human ATX protein (setting [1]) was not above 5 µM; on S1P1 (setting [2]) it was more than 5 µM; at S1P4 (setting [3]), not above 2 µM; at S1P5 (setting [4]), more than 5 µM.

Regarding `CCCCCCCCOc1ccc(N2CCN(CCC(=O)O)CC2)nn1` [Example 20, 3-(4-(6-(Octyloxy)pyridazin-3-yl)piperazin-1-yl)propanoic acid], the half-inhibitory concentration (IC50) at Human ATX protein (setting [1]) was 5 to 10 µM; on S1P1 (setting [2]), more than 5 µM; at S1P4 (setting [3]) it was 2 to 5 µM; on S1P5 (setting [4]), more than 5 µM.

Turning to `CCCCCCCCOc1cnc(N2CCN(CCC(=O)O)CC2)nc1` [Example 21, 3-(4-(5-(Octyloxy)pyrimidin-2-yl)piperazin-1-yl)propanoic acid], the 50% inhibitory concentration (IC50) was 5 to 10 µM on Human ATX protein (setting [1]), more than 5 µM at S1P1 (setting [2]), not above 2 µM on S1P4 (setting [3]) and more than 5 µM at S1P5 (setting [4]).

For `CCCCCCCCOc1ccc(C2CCCN(C3CCC(C(=O)O)CC3)C2)cc1` (centres unmarked) [Example 26, 4-(3-(4-(Octyloxy)phenyl)piperidin-1-yl)cyclohexanecarboxylic acid], the half-maximal inhibitory concentration (IC50) was 5 to 10 µM at Human ATX protein (setting [1]), more than 5 µM on S1P1 (setting [2]), 2 to 5 µM at S1P4 (setting [3]) and more than 5 µM at S1P5 (setting [4]).

For `CC[C@H]1CC[C@H](Oc2ccc(C3=CCN(CCC(=O)O)CC3)cc2)CC1` [Example 27, 3-(4-(4-((trans-4-Ethylcyclohexyl)oxy)phenyl)-5,6-dihydropyridin-1(2H)-yl)propanoic acid], the IC50 at Human ATX protein (setting [1]) was 5 to 10 µM; on S1P1 it was more than 5 µM; at S1P4, more than 5 µM; on S1P5 (setting [4]), more than 5 µM.

Regarding `CC[C@H]1CC[C@H](Oc2ccc(C3CCN(CCC(=O)O)CC3)cc2)CC1` [Example 28, 3-(4-(4-((trans-4-ethylcyclohexyl)oxy)phenyl)piperidin-1-yl)propanoic acid], the IC50 was more than 10 µM on Human ATX protein (setting [1]), more than 5 µM at S1P1 (setting [2]), more than 5 µM at S1P4 (setting [3]) and more than 5 µM at S1P5 (setting [4]).

Consider `CC[C@H]1CC[C@H](Oc2ccc(C3=CCN(CCCC(=O)O)CC3)cc2)CC1` [Example 29, 4-(4-(4-((trans-4-Ethylcyclohexyl)oxy)phenyl)-5,6-dihydropyridin-1(2H)-yl)butanoic acid], for which the concentration for half-maximal inhibition (IC50) at Human ATX protein (setting [1]) was more than 10 µM; at S1P1, more than 5 µM; at S1P4, not above 2 µM; on S1P5 (setting [4]), more than 5 µM.

Consider `CC[C@H]1CC[C@H](Oc2ccc(C3CCN(CCCC(=O)O)CC3)cc2)CC1` [Example 30, 4-(4-(4-((trans-4-Ethylcyclohexyl)oxy)phenyl)piperidin-1-yl)butanoic acid], for which the 50% inhibitory concentration (IC50) was more than 10 µM on Human ATX protein (setting [1]), more than 5 µM on S1P1 (setting [2]), not above 2 µM at S1P4 (setting [3]) and more than 5 µM on S1P5 (setting [4]).

Turning to `CC[C@H]1CC[C@H](Oc2ccc(C3=CCN(CCCCC(=O)O)CC3)cc2)CC1` [Example 31, 5-(4-(4-((trans-4-Ethylcyclohexyl)oxy)phenyl)-5,6-dihydropyridin-1(2H)-yl)pentanoic acid], the half-maximal inhibitory concentration (IC50) at Human ATX protein (setting [1]) was more than 10 µM; at S1P1 it was more than 5 µM; on S1P4, not above 2 µM; at S1P5 (setting [4]), more than 5 µM.

In the case of `CC[C@H]1CC[C@H](Oc2ccc(C3CCN(CCCCC(=O)O)CC3)cc2)CC1` [Example 32, 5-(4-(4-((trans-4-Ethylcyclohexyl)oxy)phenyl)piperidin-1-yl)pentanoic acid], the IC50 at Human ATX protein (setting [1]) is not above 5 µM; at S1P1 (setting [2]), more than 5 µM; at S1P4 (setting [3]), more than 5 µM; at S1P5 (setting [4]), more than 5 µM.

For the compound `CC[C@H]1CC[C@@H](Oc2ccc(C3=CCN(CCC(=O)O)CC3)cc2)CC1` [Example 33, 3-(4-(4-((cis-4-Ethylcyclohexyl)oxy)phenyl)-5,6-dihydropyridin-1(2H)-yl)propanoic acid], the half-maximal inhibitory concentration (IC50) against Human ATX protein was more than 10 µM; on S1P1 it was more than 5 µM; at S1P4, not above 2 µM; at S1P5, more than 5 µM.

With `CC[C@H]1CC[C@@H](Oc2ccc(C3CCN(CCC(=O)O)CC3)cc2)CC1` [Example 34, 3-(4-(4-((cis-4-Ethylcyclohexyl)oxy)phenyl)piperidin-1-yl)propanoic acid], the IC50 at Human ATX protein (setting [1]) is more than 10 µM; on S1P1 (setting [2]), more than 5 µM; on S1P4 (setting [3]), more than 5 µM; on S1P5 (setting [4]), more than 5 µM.

Regarding `CC[C@H]1CC[C@@H](Oc2ccc(C3=CCN(CCCC(=O)O)CC3)cc2)CC1` [Example 35, 4-(4-(4-((cis-4-Ethylcyclohexyl)oxy)phenyl)-5,6-dihydropyridin-1(2H)-yl)butanoic acid], the IC50 at Human ATX protein (setting [1]) is more than 10 µM; at S1P1, more than 5 µM; at S1P4 it was not above 2 µM; on S1P5 (setting [4]) it was more than 5 µM.

Turning to `CC[C@H]1CC[C@@H](Oc2ccc(C3CCN(CCCC(=O)O)CC3)cc2)CC1` [Example 36, 4-(4-(4-((cis-4-Ethylcyclohexyl)oxy)phenyl)piperidin-1-yl)butanoic acid], the IC50 is 5 to 10 µM at Human ATX protein (setting [1]), more than 5 µM at S1P1 (setting [2]), 2 to 5 µM at S1P4 (setting [3]) and more than 5 µM on S1P5 (setting [4]).

In the case of `CC[C@H]1CC[C@@H](Oc2ccc(C3=CCN(CCCCC(=O)O)CC3)cc2)CC1` [Example 37, 5-(4-(4-((cis-4-Ethylcyclohexyl)oxy)phenyl)-5,6-dihydropyridin-1(2H)-yl)pentanoic acid], the concentration for half-maximal inhibition (IC50) at Human ATX protein (setting [1]) was not above 5 µM; at S1P1, not above 2 µM; on S1P4, not above 2 µM; on S1P5 (setting [4]), 2 to 5 µM.
